Drawing on US7786109B2, “Tricyclic amide derivatives as modulators of H3 receptors” (Hoffmann-La Roche Inc., priority 2005, dated 2010), this text covers Ki for three compounds.

The target in the assay is T1, histamine 3 receptor (H3R) (Homo sapiens, UniProt Q9Y5N1).
T1 construct: expressed in transfected cells; host or cells: CHO cells (HR3-CHO cell line), membranes
T1 sequence (Q9Y5N1 whole entry): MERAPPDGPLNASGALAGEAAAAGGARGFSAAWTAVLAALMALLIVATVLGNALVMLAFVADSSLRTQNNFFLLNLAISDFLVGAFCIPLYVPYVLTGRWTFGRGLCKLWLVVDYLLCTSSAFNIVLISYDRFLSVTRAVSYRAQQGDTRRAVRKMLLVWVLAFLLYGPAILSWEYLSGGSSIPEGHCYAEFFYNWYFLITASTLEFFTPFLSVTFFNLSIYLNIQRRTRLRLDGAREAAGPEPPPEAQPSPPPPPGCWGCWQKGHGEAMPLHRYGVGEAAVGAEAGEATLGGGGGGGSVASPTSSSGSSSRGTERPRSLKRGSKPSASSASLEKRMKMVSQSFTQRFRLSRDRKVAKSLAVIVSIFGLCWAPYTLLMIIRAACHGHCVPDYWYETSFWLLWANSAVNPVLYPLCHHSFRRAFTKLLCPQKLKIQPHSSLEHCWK
In words: Binding assay with 3H-(R)α-methylhistamine (competition binding, membranes of the human HR3-CHO cell line). The settings on record: competition against 3H(R)α-Methylhistamine (1 nM), Ki calculated from IC50 by Cheng-Prusoff. Here is the method:
Binding assay with ^3H—(R)α-methylhistamine
Saturation binding experiments were performed using HR3-CHO membranes prepared as described in Takahashi, K, Tokita, S., Kotani, H. (2003) J. Pharmacol. Exp. Therapeutics 307, 213-218.
An appropriate amount of membrane (60 to 80 μg protein/well) was incubated with increasing concentrations of ^3H(R)α-Methylhistamine di-hydrochloride (0.10 to 10 nM). Non specific binding was determined using a 200 fold excess of cold (R)α-Methylhistamine dihydrobromide (500 nM final concentration). The incubation was carried out at room temperature (in deep-well plates shaking for three hours). The final volume in each well was 250 μl. The incubation was followed by rapid filtration on GF/B filters (pre-soaked with 100 μl of 0.5% PEI in Tris 50 mM shaking at 200 rpm for two hours). The filtration was made using a cell-harvester and the filter plates were then washed five times with ice cold washing buffer containing 0.5 M NaCl. After harvesting, the plates were dried at 55° C. for 60 min, then we added scintillation fluid (Microscint 40, 40 microl in each well) and the amount of radioactivity on the filter was determined in Packard top-counter after shaking the plates for two hours at 200 rpm at room temperature.
Binding Buffer: 50 mM Tris-HCl pH 7.4 and 5 mM MgCl2×6H2O pH 7.4. Washing Buffer: 50 mM Tris-HCl pH 7.4 and 5 mM MgCl2×6H2O and 0.5 M NaCl pH 7.4.
Indirect measurement of affinity of H3R inverse agonists: twelve increasing concentrations (ranging from 10 μM to 0.3 nM) of the selected compounds were always tested in competition binding experiments using membrane of the human HR3-CHO cell line. An appropriate amount of protein, e.g. approximately 500 cpm binding of RAMH at Kd, were incubated for 1 hour at room temperature in 250 μl final volume in 96-well plates in presence of ^3H(R)α-Methylhistamine (1 nM final concentration=Kd). […]
All compounds were tested at a single concentration in duplicates. […] Ki's were calculated from IC50 based on Cheng-Prusoff equation (Cheng, Y, Prusoff, W H (1973) Biochem Pharmacol 22, 3099-3108).
Consider `C[C@@H]1CCCN1CCCOc1ccc2c(c1)cc1n2CCNC1=O` [Example 5, 8-[3-((R)-2-Methyl-pyrrolidin-1-yl)-propoxy]-3,4-dihydro-2H-pyrazino[1,2-a]indol-1-one], for which the Ki (as a rule, the dissociation constant of the complex between target and ligand, obtained from inhibition or displacement) was 6.5 nM. As to `CC(C)N1CCC(Oc2ccc3c(c2)cc2n3CCCN(CC3CC3)C2=O)CC1` [Example 78, 2-Cyclopropylmethyl-9-(1-isopropyl-piperidin-4-yloxy)-2,3,4,5-tetrahydro-[1,4]diazepino[1,2-a]indol-1-one], the Ki is 17.1 nM. `C[C@H]1CCCN1CCCOc1cnc2c(c1)cc1n2CCN(CC(F)(F)F)C1=O` [Example 92, 7-[3-((S)-2-Methyl-pyrrolidin-1-yl)-propoxy]-2-(2,2,2-trifluoro-ethyl)-3,4-dihydro-2H-2,4a,5-triaza-fluoren-1-one]: the inhibitory constant (Ki) is 28.8 nM.
